Data taken from patent publication US7981890B2, “Phthalazinone derivatives” (AstraZeneca AB, priority 2007, dated 2011).
Converted amounts (≈) assume the structure as drawn.

Assays:
HeLa cells = assay: Potentiation Factor (PF50), MMS growth inhibition, SRB assay; format: cell-based; conditions: with MMS, ratio of IC50 control / IC50 with PARP inhibitor; for mean PF50 at 200 nM: compound at 200 nM; for mean PF50 at 30 nM: compound at 30 nM
Description: The Potentiation Factor (PF50) for compounds is calculated as a ratio of the IC50 of control cell growth divided by the IC50 of cell growth+PARP inhibitor. Growth inhibition curves for both control and compound treated cells are in the presence of the alkylating agent methyl methanesulfonate (MMS). […] The concentrations of MMS were over a range from 0 to 10 μg/ml.
Cell growth was assessed using the sulforhodamine B (SRB) assay (Skehan, P., et al., (1990) New calorimetric cytotoxicity assay for anticancer-drug screening. J. Natl. Cancer Inst. 82, 1107-1112). 2,000 HeLa cells were seeded into each well of a flat-bottomed 96-well microtiter plate in a volume of 100 μl and incubated for 6 hours at 37° C. […] Cells were allowed to grow for a further 1 hour before the addition of MMS at a range of concentrations (typically 0, 1, 2, 3, 5, 7 and 10 μg/ml) to either untreated cells or PARP inhibitor treated cells. Cells treated with PARP inhibitor alone were used to assess the growth inhibition by the PARP inhibitor.
Cells were left for a further 16 hours before replacing the media and allowing the cells to grow for a further 72 hours at 37° C. The media was then removed and the cells fixed with 100 μl of ice cold 10% (w/v) trichloroacetic acid. The plates were incubated at 4° C. for 20 minutes and then washed four times with water. Each well of cells was then stained with 100 μl of 0.4% (w/v) SRB in 1% acetic acid for 20 minutes before washing four times with 1% acetic acid. Plates were then dried for 2 hours at room temperature. The dye from the stained cells was solubilized by the addition of 100 μl of 10 mM Tris Base into each well. Plates were gently shaken and left at room temperature for 30 minutes before measuring the optical density at 564 nm on a Microquant microtiter plate reader.

Solubility assay = format: physicochemical; conditions: thermodynamic from solid; water; 20 hours at room temperature
Description: A typical assay that may be used to assess the solubility of the compounds of the present invention is as follows. The solubility of the compound is assessed in water and phosphate-buffered saline (pbs) at pH 7.4. The samples are all allowed to equilibrate in the solvent (with shaking) for 20 hours at room temperature. After that period, the samples will be visually examined to determine the presence/absence of un-dissolved solid. The samples will be centrifuged or filtered as necessary to remove insoluble material, and the solution analysed to determine solubility of the DS, diluting both aqueous and DMSO samples to a similar concentration with DMSO. The area of the peak obtained by HPLC (using the diode array detector) from the sample will be compared to the area of the peak from the DMSO solution (diluted to the same concentration as the sample) and quantified taking into account the weight of sample taken for initial dissolution. The assumption is made that the sample will be completely soluble in DMSO at the levels used for testing.
Comparing the ratio of the peak areas, and knowing the concentration of the original samples, the solubility may be calculated.
About 1 mg of the sample is weighed accurately into a 4-ml glass vial and exactly 1.0 ml of water, aqueous buffer or DMSO, is added to it by pipette. Each vial is ultrasonicated for up to 2 minutes to assist solublisation of the solid. The samples are retained at room temperature for 20 hours, shaking on an orbital shaker. The vials are examined after this period to determine the presence/absence of un-dissolved solid. The samples should be centrifuged, or filtered through a 0.45 μm filter, to remove insoluble material if necessary, and the filtrate analysed to determine concentration of the compound in solution, after diluting all samples as appropriate with DMSO. 20 μl is injected onto the HPLC using the method shown below, injecting all samples in duplicate. The maximum solubility that can be determined using this method is nominally 1.0 mg/ml, the weight taken divided by the volume of solvent used. […]

[1] = tested on: BRCA2 deficient (VC8) cells; assay: VC8 assay, growth inhibition (SRB); format: cell-based, hamster; conditions: V-C8
Description: (§1) In order to assess the growth inhibitory action of compounds on BRCA2 deficient (VC8−hamster line) and BRAC2 complemented (VC8+BAC) cells the following assay was used to determine GI50 values.
500 VC8 cells or 200 VC8+BAC cells were seeded into each well of a flat-bottomed 96-well microtiter plate in a volume of 90 μl and incubated for 4-6 hours at 37° C. All compounds were diluted in media (Dulbecco's Modified Eagle's Medium (DMEM), 10% Fetal Bovine Serum, Penicillin/Sretptomycin/Glutamine) and added to the cells at final concentrations of between 0 and 300 nM.
Cells were left for a further 48 hours before replacing the media with fresh media (no compound) and allowing the cells to grow for a total of 120 hours at 37° C. The medium was then removed and the cells fixed with 50 μl of ice cold 10% (w/v) tricholoracetic acid. The plates were incubated at 4° C. for 30 minutes and then washed three times with water. Each well of cells was then stained with 50 μl of 0.4% (w/v) sulforhodamine B (SRB) in 1% acetic acid for 15 minutes before washing three times with 1% acetic acid. Plates were then dried for 2 hours at room temperature. The dye from the stained cells was solubilised by the addition of 100 μl of 10 mM Tris Base into each well. Plates were then shaken and the optical density at 564 nm was measured on a Microquant microtiter plate reader. […]

[2] = tested on: BRAC2 complemented (VC8+BAC) cells; assay: VC8 assay, growth inhibition (SRB), complemented cells; format: cell-based, hamster; conditions: BRCA2 complemented VC8+BAC cells
Description: as §1
500 VC8 cells or 200 VC8+BAC cells were seeded into each well of a flat-bottomed 96-well microtiter plate in a volume of 90 μl and incubated for 4-6 hours at 37° C. […]
Cells were left for a further 48 hours before replacing the media with fresh media (no compound) and allowing the cells to grow for a total of 120 hours at 37° C. The medium was then removed and the cells fixed with 50 μl of ice cold 10% (w/v) tricholoracetic acid. The plates were incubated at 4° C. for 30 minutes and then washed three times with water. Each well of cells was then stained with 50 μl of 0.4% (w/v) sulforhodamine B (SRB) in 1% acetic acid for 15 minutes before washing three times with 1% acetic acid. Plates were then dried for 2 hours at room temperature. The dye from the stained cells was solubilised by the addition of 100 μl of 10 mM Tris Base into each well. Plates were then shaken and the optical density at 564 nm was measured on a Microquant microtiter plate reader.
The GI50 is calculated as the μM concentration of compound required to inhibit 50% of cell growth.

Row | solubility at 20 h (Solubility assay) [µg/mL] | Compound | mean PF50 at 200 nM (HeLa cells) | mean PF50 at 30 nM (HeLa cells) | GI50 [1] [µM] | GI50 [2] [µM]
1 | 105 (≈ 287 µM) | CC1(C)NC(=O)N(c2cccc(Cc3n[nH]c(=O)c4c3CCCC4)c2)C1=O [Compound 15, 5,5-dimethyl-3-[3-[(4-oxo-5,6,7,8-tetrahydro-3H-phthalazin-1-yl)methyl]phenyl]imidazolidine-2,4-dione] | 2 | – | – | –
2 | – | C[C@H]1NC(=O)N(c2cc(Cc3n[nH]c(=O)c4c3CCCC4)ccc2F)C1=O (single isomer, unassigned) [Compound 13b] | – | 9 | – | –
3 | 900 (≈ 2430 µM) | CC1NC(=O)N(c2cc(Cc3n[nH]c(=O)c4c3CCCC4)ccc2F)C1=O (stereo not shown) [Compound 13, 3-[2-Fluoro-5-(4-oxo-3,4,5,6,7,8-hexahydro-phthalazin-1-ylmethyl)-phenyl]-5-methylimidazolidine-2,4-dione] | 57 | – | 0.0105 | 29
4 | 500 (≈ 1420 µM) | CC1NC(=O)N(c2cccc(Cc3n[nH]c(=O)c4c3CCCC4)c2)C1=O (stereo not shown) [Compound 6, 5-Methyl-3-[3-(4-oxo-3,4,5,6,7,8-hexahydro-phthalazin-1-ylmethyl)-phenyl]-imidazolidine-2,4-dione] | 20 | – | – | –
5 | – | C[C@@H]1NC(=O)N(c2cc(Cc3n[nH]c(=O)c4c3CCCC4)ccc2F)C1=O (single isomer, unassigned) [Compound 13a] | – | 25 | – | –
